Experimental data reported in patent US20080207617A1, “Quinoline Derivatives and Quinazoline Derivatives Inhibiting Autophosphrylation of Flt3 and Medicinal Compositions Containing the Same” (KIRIN BEER KABUSHIKI KAISHA, priority 2002, published 2008).
Structures can show the parent of a compound that is named as a salt.

Tests used:
[1] = test system: MOLM13; experiment: Cell growth inhibitory activity using MTT method (MOLM13); format: cell-based, human; details: MOLM13 cells
[2] = test system: MOLM13; experiment: Cell growth inhibitory activities on cultured human leukemia cells MOLM-13 (WST-1); format: cell-based; details: 3 days culture

SMILES	IC50 ([1]; Homo sapiens, MOLM-13, 72 h) [nM]	IC50 ([2]; Homo sapiens, MOLM-13, 72 h) [nM]	IC50 ([1]; 72 hr, hydrochloride) [nM]	IC50 ([2]; hydrochloride) [nM]
COc1cc2nccc(Oc3ccc(NC(=O)NCCC(C)(C)C)cc3F)c2cc1OC [Compound 10, 1-[4-(6,7-Dimethoxy-quinolin-4-yloxy)-3-fluoro-phenyl]-3-(3,3-dimethyl-butyl)-urea hydrochloride]	20.8	2	–	–
COc1cc2c(Oc3ccc(NC(=O)NCCC(C)(C)C)c(F)c3)ccnc2cc1OCCN1CCOCC1 [Compound 41, 1-(3,3-Dimethyl-butyl)-3-{2-fluoro-4-[6-methoxy-7-(2-morpholin-4-yl-ethoxy)-quinolin-4-yloxy]-phenyl}-urea hydrochloride]	–	–	34.8	75
COc1cc2c(Oc3ccc(NC(=O)NCCC(C)(C)C)c(F)c3)ccnc2cc1OCCN1CCCCC1 [Compound 43, 1-(3,3-Dimethyl-butyl)-3-{2-fluoro-4-[6-methoxy-7-(2-piperidin-1-yl-ethoxy)-quinolin-4-yloxy]-phenyl}-urea hydrochloride]	32.5	22	–	–
COc1cc2nccc(Oc3ccc(NC(=O)NCCC(C)(C)C)cc3Cl)c2cc1OC [Compound 8, 1-[3-Chloro-4-(6,7-dimethoxy-quinolin-4-yloxy)-phenyl]-3-(3,3-dimethyl-butyl)-urea]	13.3	3	–	–
COc1cc2c(Oc3ccc(NC(=O)NCCC(C)(C)C)cc3F)ccnc2cc1OCCN1CCCCC1 [Compound 44, 1-(3,3-Dimethyl-butyl)-3-{3-fluoro-4-[6-methoxy-7-(2-piperidin-1-yl-ethoxy)-quinolin-4-yloxy]-phenyl}-urea]	19.3	3	–	–
COc1cc2nccc(Oc3ccc(NC(=O)NCCC(C)(C)C)cc3)c2cc1OC [Compound 1, 1-[4-(6,7-Dimethoxy-quinolin-4-yloxy)-phenyl]-3-(3,3-dimethyl-butyl)-urea hydrochloride]	24.4	1	–	–
COc1cc2nccc(Oc3c(Cl)cc(NC(=O)NCCC(C)(C)C)cc3Cl)c2cc1OC [Compound 6, 1-[3,5-Dichloro-4-(6,7-dimethoxy-quinolin--4-yloxy)-phenyl]-3-(3,3-dimethyl-butyl)-urea]	12.4	21	–	–
